Test results as given in patent US20260137736A1, “PROBIOTIC LACTOBACILLUS STRAIN COMPOSITIONS AND APPLICATIONS THEREFOR INCLUDING FOR LEAKY GUT AND INFLAMMATION” (priority 2021, published 2026).

Key:
[1] = system: L. reuteri growth; conditions: EFSA guideline species cut-off for L. reuteri; cited from earlier work
[2] = system: L. reuteri growth; assay: Antimicrobial susceptibility profiling, broth microdilution MIC against clinically relevant antibiotics (EFSA cut offs); format: cell-based; design: unit not given here; conditions: for Minimum inhibitory concentration (MIC), L. reuteri PTA-126787: strain L. reuteri PTA-126787, two biological replicates; for Minimum inhibitory concentration (MIC), L. reuteri PTA-126788: strain L. reuteri PTA-126788, two biological replicates
Protocol: Antimicrobial susceptibility testing was performed using broth microdilution method, using LSB medium (Mueller Hinton broth containing 5% horse blood) following Clinical and Laboratory Standards Institute (CLSI, 28th edition) guidelines. Two-fold dilutions of the clinically relevant antibiotics (Clindamycin, Chloramphenicol, Erythromycin, Gentamicin, Kanamycin, Streptomycin, Tetracycline and Ampicillin, all purchased from Sigma Aldrich) were prepared in LSB medium. Approximately, 50 μL of 1×10^5 CFUs/mL of the L. reuteri cells were added into each well. “No antibiotic” and “medium” alone controls were included. […], Pseudomonas aeruginosa ATCC 27853, Staphylococcus aureus ATCC 29213, Enterococcus faecalis ATCC 29212, Streptococcus pneumonia ATCC 49619 and Lacticaseibacillus paracasei ATCC 334 were used as quality control organisms. The plates were incubated for 24-48 hours under microaerophilic conditions. […] The strains were classified as susceptible or resistant using the microbiological cut offs established by EFSA (35).

| Compound | EFSA microbiological cut off values for L. reuteri [1] | Minimum inhibitory concentration (MIC), L. reuteri PTA-126787 [2] | Minimum inhibitory concentration (MIC), L. reuteri PTA-126788 [2] |
| --- | --- | --- | --- |
| CC1(C)S[C@@H]2[C@H](NC(=O)[C@H](N)c3ccccc3)C(=O)N2[C@H]1C(=O)O [Ampicillin] | 2 | 1 | 1 |
| O=C(N[C@H](CO)[C@H](O)c1ccc([N+](=O)[O-])cc1)C(Cl)Cl [Chloramphenicol] | 4 | 2 | 2 |
| CCC[C@@H]1C[C@@H](C(=O)N[C@@H]([C@H]2O[C@H](SC)[C@H](O)[C@@H](O)[C@H]2O)[C@H](C)Cl)N(C)C1 [Clindamycin] | – | ≥0.06 | ≥0.06 |
| CC[C@H]1OC(=O)[C@H](C)[C@@H](O[C@H]2C[C@@](C)(OC)[C@@H](O)[C@H](C)O2)[C@H](C)[C@@H](O[C@@H]2O[C@H](C)C[C@H](N(C)C)[C@H]2O)[C@](C)(O)C[C@@H](C)C(=O)[C@H](C)[C@@H](O)[C@]1(C)O [Erythromycin] | 1 | 0.12 | 0.12 |
| NC[C@H]1O[C@H](O[C@H]2[C@H](O)[C@@H](O[C@H]3O[C@H](CO)[C@@H](O)[C@H](N)[C@H]3O)[C@H](N)C[C@@H]2N)[C@H](O)[C@@H](O)[C@@H]1O [Kanamycin] | – | 16 | 16 |
| [H]/N=C(/N)N[C@H]1[C@H](O)[C@@H](O)[C@H](O[C@@H]2O[C@@H](C)[C@](O)(C=O)[C@H]2O[C@@H]2O[C@@H](CO)[C@H](O)[C@@H](O)[C@@H]2NC)[C@@H](N/C(N)=N\[H])[C@@H]1O [Streptomycin] | 64 | 8 | 8 |
| CN(C)[C@@H]1C(O)=C(C(N)=O)C(=O)[C@@]2(O)C(O)=C3C(=O)c4c(O)cccc4[C@@](C)(O)[C@H]3C[C@@H]12 [Tetracycline] | – | 32/64 | 32/64 |
| Gentamicin | 8 | 1 | 1 |
